Experimental data taken from ChEMBL document CHEMBL1201862, “PubChem BioAssay data set” (2004).
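Test compounds were applied to cells in 96-well plates for 48 hours at 5 doses. GI50 marks 50% less growth.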 The source made the active and inactive calls. Rule as the data show it: active = GI50 up to about 1.1 µM and inactive = higher.

What was measured:
Assay in all cases: inhibition of tumour cell growth, NCI panel, 48 h
COLO 205 = test system: COLO 205
HCT-116 = test system: HCT-116
RPMI-8226 = test system: RPMI-8226
M14 = test system: M14
OVCAR-5 = test system: OVCAR-5
LOX IMVI = test system: LOX IMVI
Malme-3M = test system: Malme-3M
CAKI-1 = test system: CAKI-1
HOP-62 = test system: HOP-62
SF-539 = test system: SF-539
NCI-H522 = test system: NCI-H522
HCT-15 = test system: HCT-15
SN12C = test system: SN12C
CCRF-CEM = test system: CCRF-CEM
HL-60 = test system: HL-60
IGROV-1 = test system: IGROV-1
MDA-MB-231 = test system: MDA-MB-231
MCF7 = test system: MCF7

Compound	GI50 (COLO 205)	GI50 (HCT-116)	GI50 (RPMI-8226)	GI50 (M14)	GI50 (OVCAR-5)	GI50 (LOX IMVI)	GI50 (Malme-3M)	GI50 (CAKI-1)	GI50 (HOP-62)	GI50 (SF-539)	GI50 (NCI-H522)	GI50 (HCT-15)	GI50 (SN12C)	GI50 (CCRF-CEM)	GI50 (HL-60)	GI50 (IGROV-1)	GI50 (MDA-MB-231)	GI50 (MCF7)
OC(c1ccccc1)(c1ccccc1)c1ccncc1	> 100 µM (inactive)	> 100 µM (inactive)	> 100 µM (inactive)	> 100 µM (inactive)	> 100 µM (inactive)	> 100 µM (inactive)	> 100 µM (inactive)	> 100 µM (inactive)	> 100 µM (inactive)	59.4 µM (inactive)	> 100 µM (inactive)	> 100 µM	> 100 µM (inactive)	> 100 µM (inactive)	> 100 µM (inactive)	> 100 µM (inactive)	–	–
COc1ccc2c(c1)C(=O)c1ccc(OC)cc1C2=S	> 100 µM (inactive)	> 100 µM (inactive)	> 100 µM (inactive)	> 100 µM (inactive)	> 100 µM (inactive)	> 100 µM (inactive)	> 100 µM (inactive)	–	> 100 µM (inactive)	> 100 µM (inactive)	> 100 µM (inactive)	> 100 µM	> 100 µM (inactive)	25.5 µM (inactive)	40.1 µM (inactive)	> 100 µM (inactive)	–	–
COC(=O)c1csnn1	> 100 µM (inactive)	> 100 µM (inactive)	> 100 µM (inactive)	> 100 µM (inactive)	–	> 100 µM (inactive)	> 100 µM (inactive)	–	> 100 µM (inactive)	> 100 µM (inactive)	> 100 µM (inactive)	> 100 µM	> 100 µM (inactive)	> 100 µM (inactive)	> 100 µM (inactive)	> 100 µM (inactive)	–	–
N#Cc1nc(Nc2cccc3ccccc23)sc1N	24.6 µM (inactive)	32.1 µM (inactive)	11.9 µM (inactive)	39.9 µM (inactive)	68.9 µM (inactive)	17.3 µM (inactive)	26.2 µM (inactive)	28.7 µM (inactive)	33.3 µM (inactive)	23.2 µM (inactive)	15.9 µM (inactive)	29.5 µM	14.1 µM (inactive)	–	20.7 µM (inactive)	45.1 µM (inactive)	–	–
CC(=O)NC(CCCNC(=O)NCCCl)C(=O)NCc1ccccc1 (stereo unspecified)	> 100 µM (inactive)	> 100 µM (inactive)	> 100 µM (inactive)	> 100 µM (inactive)	–	–	> 100 µM (inactive)	> 100 µM (inactive)	> 100 µM (inactive)	> 100 µM (inactive)	> 100 µM (inactive)	> 100 µM	> 100 µM (inactive)	> 100 µM (inactive)	> 100 µM (inactive)	–	–	–
C/C(=N\NC(C)(C)C)c1sc(-c2nc(C)c(/C(C)=N/NC(C)(C)C)s2)nc1C	> 100 µM (inactive)	> 100 µM (inactive)	> 100 µM (inactive)	> 100 µM (inactive)	–	> 100 µM (inactive)	> 100 µM (inactive)	> 100 µM (inactive)	–	> 100 µM (inactive)	> 100 µM (inactive)	> 100 µM	> 100 µM (inactive)	> 100 µM (inactive)	> 100 µM (inactive)	> 100 µM (inactive)	–	–
CC1=C(C(=O)CC(=O)C(=O)Nc2cc(C)ccc2C)Sc2ccccc2N1	–	> 100 µM (inactive)	> 100 µM (inactive)	> 100 µM (inactive)	> 100 µM (inactive)	> 100 µM (inactive)	> 100 µM (inactive)	> 100 µM (inactive)	> 100 µM (inactive)	> 100 µM (inactive)	> 100 µM (inactive)	> 100 µM	> 100 µM (inactive)	80.9 µM (inactive)	> 100 µM (inactive)	> 100 µM (inactive)	–	–
CCOP(=O)(OCC)/C(C#N)=C/c1ccc[nH]1	> 100 µM (inactive)	> 100 µM (inactive)	> 100 µM (inactive)	> 100 µM (inactive)	> 100 µM (inactive)	> 100 µM (inactive)	> 100 µM (inactive)	> 100 µM (inactive)	> 100 µM (inactive)	> 100 µM (inactive)	> 100 µM (inactive)	> 100 µM	> 100 µM (inactive)	> 100 µM (inactive)	> 100 µM (inactive)	–	–	–
Cc1ccc(SC2C(C)(C)N(C(C)C)P2(=O)N(C(C)C)C(C)C)cc1 (stereo unspecified)	> 43.7 µM (inactive)	26.4 µM (inactive)	9.35 µM (inactive)	71.4 µM (inactive)	> 100 µM (inactive)	28 µM (inactive)	> 32.3 µM (inactive)	47 µM (inactive)	> 100 µM (inactive)	> 88.9 µM (inactive)	20.5 µM (inactive)	62.8 µM	38.6 µM (inactive)	31.8 µM (inactive)	14.7 µM (inactive)	> 86.3 µM (inactive)	–	–
CN(c1ccccc1)C1C(=O)N(c2ccccc2)C1/C=C/c1ccccc1 (stereo unspecified)	> 100 µM (inactive)	> 100 µM (inactive)	> 100 µM (inactive)	–	> 100 µM (inactive)	–	> 100 µM (inactive)	> 100 µM (inactive)	–	> 100 µM (inactive)	> 100 µM (inactive)	–	> 100 µM (inactive)	> 100 µM (inactive)	> 100 µM (inactive)	> 100 µM (inactive)	–	–
CCOC(C[C@H](O)[C@H]1COC(=S)S1)OCC	> 100 µM (inactive)	> 100 µM (inactive)	> 100 µM (inactive)	> 100 µM (inactive)	–	> 100 µM (inactive)	> 100 µM (inactive)	–	> 100 µM (inactive)	> 100 µM (inactive)	> 100 µM (inactive)	> 100 µM	> 100 µM (inactive)	–	> 100 µM (inactive)	> 100 µM (inactive)	–	–
N#Cc1ccc(Sc2ccccc2)cc1C#N	33.2 µM (inactive)	20.7 µM (inactive)	28.1 µM (inactive)	> 100 µM (inactive)	> 100 µM (inactive)	19.9 µM (inactive)	> 100 µM (inactive)	> 100 µM (inactive)	36.9 µM (inactive)	19.7 µM (inactive)	31.7 µM (inactive)	16 µM	60.3 µM (inactive)	18.1 µM (inactive)	> 100 µM (inactive)	> 100 µM (inactive)	–	–
C/C(=N/N)c1sc(-c2nc(C)c(/C(C)=N\N)s2)nc1C	> 46.1 µM (inactive)	> 100 µM (inactive)	35.7 µM (inactive)	> 95.3 µM (inactive)	> 100 µM (inactive)	39.5 µM (inactive)	> 100 µM (inactive)	> 100 µM (inactive)	> 100 µM (inactive)	> 100 µM (inactive)	> 53.6 µM (inactive)	> 43 µM	> 100 µM (inactive)	27.2 µM (inactive)	30.1 µM (inactive)	> 100 µM (inactive)	–	–
O=C1C=C(Nc2ccccc2C(=O)CC(=O)C(=O)Nc2ccc(Cl)cc2)c2ccccc2C1=O	17.9 µM (inactive)	6.18 µM (inactive)	3.21 µM (inactive)	10.9 µM (inactive)	19.6 µM (inactive)	1.93 µM (inactive)	11.8 µM (inactive)	29.8 µM (inactive)	17.7 µM (inactive)	20.1 µM (inactive)	7.85 µM (inactive)	10.6 µM	12.6 µM (inactive)	3.59 µM (inactive)	3.32 µM (inactive)	27.4 µM (inactive)	–	–
COc1cc2ccnc3c(=C(SC)SC)c(=O)c(c1OC)c23	3.37 µM (inactive)	–	3.29 µM (inactive)	13.9 µM (inactive)	20.9 µM (inactive)	2.87 µM (inactive)	11.4 µM (inactive)	10.3 µM (inactive)	> 100 µM (inactive)	17.4 µM (inactive)	1.56 µM (inactive)	11.9 µM	15.2 µM (inactive)	2.86 µM (inactive)	2.26 µM (inactive)	21 µM (inactive)	–	–
CCC(C)C(NC(=O)c1c2ccccc2nc2ccccc12)C(=O)O (stereo unspecified)	> 100 µM (inactive)	> 100 µM (inactive)	> 100 µM (inactive)	> 100 µM (inactive)	> 100 µM (inactive)	74 µM (inactive)	51.2 µM (inactive)	> 100 µM (inactive)	> 100 µM (inactive)	60.7 µM (inactive)	> 100 µM (inactive)	41 µM	> 100 µM (inactive)	31.7 µM (inactive)	–	86.5 µM (inactive)	> 100 µM (inactive)	98.9 µM (inactive)
O=C1OC(CC(=O)c2ccc(Cl)cc2Cl)C(Cl)=C1Cl (stereo unspecified)	20.8 µM (inactive)	18.2 µM (inactive)	26.9 µM (inactive)	27.2 µM (inactive)	> 45.1 µM (inactive)	24.5 µM (inactive)	19.7 µM (inactive)	30.8 µM (inactive)	> 59.2 µM (inactive)	22 µM (inactive)	17.6 µM (inactive)	29.3 µM	18.9 µM (inactive)	25.7 µM (inactive)	26.7 µM (inactive)	> 41 µM (inactive)	–	–
CN1C/C(=C\c2ccco2)c2nc(N)nc(-c3ccco3)c2C1	> 100 µM (inactive)	> 100 µM (inactive)	31.7 µM (inactive)	> 100 µM (inactive)	> 100 µM (inactive)	60.4 µM (inactive)	> 100 µM (inactive)	> 100 µM (inactive)	> 100 µM (inactive)	> 100 µM (inactive)	> 100 µM (inactive)	> 100 µM	> 100 µM (inactive)	74.1 µM (inactive)	52.7 µM (inactive)	> 100 µM (inactive)	–	–
C1=CC=C2NCCCCCC/N=C3\C=CC=CC=C3NCCc3cccc(c3)CC/N=C/2C=C1	14.3 µM (inactive)	6.27 µM (inactive)	7.45 µM (inactive)	11 µM (inactive)	14.4 µM (inactive)	4.63 µM (inactive)	35.3 µM (inactive)	33.3 µM (inactive)	10 µM (inactive)	10.8 µM (inactive)	16.9 µM (inactive)	15.8 µM	29.7 µM (inactive)	15.9 µM (inactive)	5.43 µM (inactive)	16.9 µM (inactive)	–	–
